Source: ChEMBL document CHEMBL6071195, “Oxime Linked Doxorubicin Glycoconjugates Improve the Specific Targeting of Glioblastoma in High-Grade Glioma Therapy” (ACS Med Chem Lett, 2024)
Activity calls are given as the source filed them. The calls are words filed in the database; no cut-off is given here.

Key:
[1] = Stability of compound at pH 3.5 incubated for 72 hrs by HPLC analysis; format: physicochemical; details: buffer, pH 3.5, 72 h
[2] = system: A 172; experiment: Induction of apoptosis in human A-172 cells assessed as apoptotic rate at 10 uM incubated for 24 hrs by TUNEL assay relative to control; format: functional
[3] = Stability of compound at pH 5.0 incubated for 72 hrs by HPLC analysis; format: physicochemical; details: buffer, pH 5, 72 h
[4] = Drug uptake in human T98G cells at 10 uM incubated for 8 hrs by DAPI staining based immunofluorescence analysis; format: ADME, cell-based
[5] = system: T98G; experiment: Induction of apoptosis in human T98G cells assessed as apoptotic rate at 10 uM incubated for 24 hrs by TUNEL assay relative to control; format: functional
[6] = system: T98G; experiment: Cytotoxicity against human T98G cells assessed as reduction in cell viability at 10 uM glucose deprived for 8 hrs followed by compound addition and measured after 48 hrs by MTT assay relative to control; format: functional, cell-based
[7] = Drug uptake in human SVG p12 cells at 10 uM incubated for 8 hrs by DAPI staining based immunofluorescence analysis; format: ADME, cell-based; details: svg p12, 8 h
[8] = system: A 172; experiment: Cytotoxicity against human A-172 cells assessed as reduction in cell viability at 10 uM glucose deprived for 8 hrs followed by compound addition and measured after 24 to 48 hrs by MTT assay relative to control; format: functional, cell-based; details: time 24-48 hrs
[9] = system: DNA; experiment: Binding affinity to DNA (unknown origin) assessed as intercalation by measuring hypsochromic shift at 100 uM by UV-Vis absorption spectra; format: nucleic-acid assay
[10] = system: A 172; experiment: Cytotoxicity against human A-172 cells co-cultured with MDCK-II cells transfected with human P-gp assessed as cell viability at 100 uM pretreated for 2 hrs followed by […] cell removal and measured after 48 hrs by MTT assay relative to control; format: functional; details: time 50 hrs, read-out: Activity
[11] = system: T98G; experiment: Induction of DNA damage in human T98G cells at 10 uM incubated for 24 hrs by TUNEL assay; format: functional, cell-based
[12] = system: DNA; experiment: Binding affinity to DNA (unknown origin) assessed as intercalative binding constant (Ka) by UV-Vis absorption spectra; format: nucleic-acid assay
[13] = system: A 172; experiment: Cytotoxicity against human A-172 cells assessed as reduction in cell viability at 10 uM incubated for 24 to 48 hrs by MTT assay; format: functional, cell-based; details: time 24-48 hrs
[14] = Cytotoxicity against human T98G cells co-cultured with MDCK-II cells transfected with human P-gp assessed as cell viability at 100 uM pretreated for 2 hrs followed by […] cell removal and measured after 48 hrs by MTT assay relative to control; format: functional; details: time 50 hrs, read-out: Activity
[15] = Stability of compound in T98G GBM cell culture media at pH 6.8 measured after 72 hrs by HPLC analysis; format: physicochemical; details: pH 6.8, 72 h
[16] = system: DNA; experiment: Binding affinity to DNA (unknown origin) assessed as Stem-Volmer quenching constant by fluorescence spectral analysis; format: nucleic-acid assay
[17] = Stability of compound at pH 2 measured after 24 hrs by HPLC analysis; format: physicochemical; details: buffer, pH 2, 24 h
[18] = Drug uptake in human A-172 cells at 10 uM incubated for 8 hrs by DAPI staining based immunofluorescence analysis; format: ADME, cell-based; details: a 172, 8 h
[19] = Stability of compound at pH 2 assessed as drug hydrolysis measured after 72 hrs by HPLC analysis; format: physicochemical; details: buffer, read-out: Drug degradation
[20] = Drug uptake in human A-172 cells assessed as red appearance incubated for 24 hrs by imaging analysis; format: ADME, cell-based; details: a 172, 24 h
[21] = Drug uptake in human T98G cells assessed as red appearance incubated for 24 hrs by imaging analysis; format: ADME, cell-based
[22] = Stability of compound at pH 7.4 incubated for 72 hrs by HPLC analysis; format: physicochemical; details: buffer, pH 7.4, 72 h
[23] = system: T98G; experiment: Cytotoxicity against human T98G cells assessed as reduction in cell viability at 10 uM glucose deprived for 8 hrs followed by compound addition and measured after 24 hrs by MTT assay relative to control; format: functional, cell-based
[24] = system: A 172; experiment: Induction of DNA damage in human A-172 cells at 10 uM incubated for 24 hrs by TUNEL assay; format: functional, cell-based
[25] = system: T98G; experiment: Cytotoxicity against human T98G cells assessed as cell viability at 10 uM incubated for 24 hrs by MTT assay relative to control; format: functional
[26] = Cytotoxicity against human SVG p12 cells assessed as reduction in cell viability at 10 uM incubated for 24 to 48 hrs by MTT assay; format: toxicity, cell-based; details: svg p12, 10 µM, time 24-48 hrs
[27] = system: T98G; experiment: Cytotoxicity against human T98G cells assessed as reduction in cell viability at 10 uM incubated for 48 hrs by MTT assay; format: functional, cell-based

| SMILES | Stability [1] | Activity [2] | Stability [3] | Drug uptake [4] | Activity [5] | Activity [6] | Drug uptake [7] | Activity [8] | Activity [9] | viability at 100 µM [10] | Activity [11] | K [12] | Activity [13] | viability at 100 µM [14] | Stability [15] | KSV [16] | Stability [17] | Drug uptake [18] | degraded at 72 h [19] | Activity [23] | also measured |
| --- | --- | --- | --- | --- | --- | --- | --- | --- | --- | --- | --- | --- | --- | --- | --- | --- | --- | --- | --- | --- | --- |
| COc1cccc2c1C(=O)c1c(O)c3c(c(O)c1C2=O)C[C@@](O)(/C(CO)=N\OCC(=O)NC[C@H]1O[C@H](OC)[C@H](O)[C@@H](O)[C@@H]1O)C[C@@H]3O[C@H]1C[C@H](N)[C@H](O)[C@H](C)O1 | Stable | 32% | Stable | Not Active | inactive | inactive | Not Active | Active | Active | 129% | inactive | 3.5 10^5/M | Active | 76% | Stable | 4.4 10^5/M | Unstable | Not Active | 46% | inactive | Drug uptake [20]: Not Active; Drug uptake [21]: Not Active; Stability [22]: Stable |
| COc1cccc2c1C(=O)c1c(O)c3c(c(O)c1C2=O)C[C@@](O)(C(=O)CO)C[C@@H]3O[C@H]1C[C@H](N)[C@H](O)[C@H](C)O1 [DOXORUBICIN] | – | 102% | – | Active | 122% | Active | Active | Active | – | 94% | Active | 3.3 10^5/M | Active | 73% | – | 3.1 10^5/M | – | Active | – | inactive | Activity [24]: Active; Activity [25]: inactive; Activity [26]: Toxic |
| COc1cccc2c1C(=O)c1c(O)c3c(c(O)c1C2=O)C[C@@](O)(/C(CO)=N\OCC(=O)NCc1cn(C[C@H]2O[C@H](OC)[C@H](O)[C@@H](O)[C@@H]2O)nn1)C[C@@H]3O[C@H]1C[C@H](N)[C@H](O)[C@H](C)O1 | Stable | 202% | Stable | Active | 116% | Active | Active | Active | Active | 58% | Active | 2.7 10^5/M | Active | 62% | Stable | 3.5 10^5/M | Unstable | Active | 49% | inactive | Activity [24]: Active; Activity [27]: Active; viability at 10 µM ([25]; read-out: Activity): 80%; Activity [26]: Non-Toxic; Drug uptake [20]: Active; Drug uptake [21]: Active; Stability [22]: Stable |
